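The compound was tested at five concentrations on cells cultured in 96-well plates, with a 48-hour exposure period. GI50 marks 50% less growth. TGI denotes the concentration required for complete inhibition of growth.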

The first assay relates to OVCAR-3 ovarian. In words: NCI tumour cell line growth inhibition, 48 h.
Molecule `O=c1oc(-c2ccc(O)c(O)c2)cc2cccc(O)c12` had a TGI of more than 62.4 µM.

Turning to `COc1cc2c(cc1-c1c(C)noc1C)cc(C)c(=O)n2Cc1ccccn1`, the GI50 is 1800 nM and the TGI came to 11.2 µM.

In the case of `N#CC(C#N)=CNC(=S)c1ccncc1`, the TGI was 1.36 µM.

On to `C1=CC2=CC=CC3c4nc5ccc6ccccc6c5nc4C(=C1)C23` (stereo not given), for which the TGI was more than 100 µM.

The molecule `COc1ccc(C2(CC(C)O)SCCCS2)cc1` (stereo not given) returned a TGI of more than 100 µM.

`Clc1ccc(-c2nn3c(-c4ccncc4)nnc3s2)cc1`: the TGI was more than 100 µM.

`COc1ccc(C(OCC2OC(n3cc(C)c(=O)[nH]c3=O)CC2n2cc(Cn3cc(F)c(=O)[nH]c3=O)nn2)(c2ccccc2)c2ccccc2)cc1` (stereo not given) came in with a TGI of 19.6 µM.

The molecule `O=[N+]([O-])/C(C(Cl)=C(Cl)Cl)=C(\Nc1cccc2cccnc12)SCc1ccccc1` yielded a TGI of 32.8 µM.

The molecule `Oc1ccccc1/C=N/c1nc2cc3sc(/N=C/c4ccccc4O)nc3cc2s1` showed a TGI of more than 100 µM.

In turn, `CCCCC1c2c([nH]c3ccccc23)C2C(=O)N(c3ccc(OC)cc3)C(=O)C2C1CCC` (stereo not given) returned a TGI of 6.26 µM.

Regarding `CCN(CC)CCOc1ccc(N2C(=O)c3cc(OC)c(OC)cc3C2=O)cc1`, the TGI was more than 100 µM.

Turning to `C(=N\NC1=NCCCN1)/c1ccc2ccccc2c1`, the TGI was 32.2 µM.

For the next assay, the system named is NCI/ADR-RES ovarian. In words: NCI tumour cell line growth inhibition, 48 h.
`O=P(c1ccccc1)(c1ccccc1)N1O[C@@H](c2ccccc2)C=C[C@H]1c1ccccc1` displayed a TGI of 24 µM.

In turn, `CC(C)(C)NC(=O)/C(=C\Sc1ccccc1)c1ccc2c(c1)OCO2` displayed a TGI of 97.5 µM.

Regarding `COC(=O)[C@]12CC[C@H]3CN(C(=O)OCc4ccccc4)[C@H]([C@H]31)[C@H](c1ccco1)N2S(=O)(=O)c1ccc(C)cc1`, the TGI stood at 61.2 µM.

`O=C1C[C@H](Sc2ccccc2)C2(OCCO2)[C@@H](Sc2ccccc2)C1` showed a TGI of 4.92 µM.

For `CCCNC(=O)CCC(C)[C@H]1CCC2C3C(C[C@H](OC(C)=O)[C@@]21C)[C@@]1(C)CCC2(C[C@H]1C[C@H]3OC(C)=O)OOC1(CCC(C)CC1)OO2` (stereo not given in full), the TGI was 40.5 µM.

Take `CCN(C(=S)N[C@@H](Cc1ccccc1)C(=O)N[C@@H](CC(C)C)C(=O)OC)c1ccccc1`: the TGI is more than 100 µM.

Consider `CCCn1c(CN(Cc2nc3ccccc3n2CCC)Cc2nc3ccccc3n2CCC)nc2ccccc21`, for which the TGI was more than 100 µM.

Molecule `COc1cc(NS(C)(=O)=O)ccc1N1Cc2cnc3ccc4[nH]c(C)cc1c4c23` gave a TGI of more than 100 µM.

On to `CC12CC(=O)C3C(C(=O)C1)C32C` (stereo not given), for which the TGI is more than 100 µM.

`CC(=O)N/N=C1\NC(=O)C[C@H]2[C@@H]3CC=C4C[C@@H](OC(C)=O)CC[C@]4(C)[C@H]3CC[C@]12C`: the TGI was more than 100 µM.

`C=C[C@@H]1C(CO)=CCC2[C@H]1CCC1C(C)(C)C(=O)CC[C@]21C` (stereo not given in full): the TGI is more than 100 µM.

As to `COc1ccc2cc3c4cc5c(cc4cc[n+]3cc2c1OC)OCO5`, the TGI is more than 100 µM.

Regarding `C/C(CC1C2CCCC1C2)=N\NC(N)=O` (stereo not given), the TGI is more than 100 µM.

In turn, `O=c1oc(-c2ccc(O)c(O)c2)cc2cccc(O)c12` yielded a TGI of 51.3 µM.

Consider `COc1cc2c(cc1-c1c(C)noc1C)cc(C)c(=O)n2Cc1ccccn1`, for which the GI50 was 1340 nM and the TGI is more than 100 µM.

For `N#CC(C#N)=CNC(=S)c1ccncc1`, the TGI is more than 100 µM.

In the case of `C1=CC2=CC=CC3c4nc5ccc6ccccc6c5nc4C(=C1)C23` (stereo not given), the TGI is more than 100 µM.

Turning to `COc1ccc(C2(CC(C)O)SCCCS2)cc1` (stereo not given), the TGI is more than 100 µM.

`Clc1ccc(-c2nn3c(-c4ccncc4)nnc3s2)cc1` showed a TGI of more than 100 µM.

`COc1ccc(C(OCC2OC(n3cc(C)c(=O)[nH]c3=O)CC2n2cc(Cn3cc(F)c(=O)[nH]c3=O)nn2)(c2ccccc2)c2ccccc2)cc1` (stereo not given): the TGI is more than 100 µM.

`O=[N+]([O-])/C(C(Cl)=C(Cl)Cl)=C(\Nc1cccc2cccnc12)SCc1ccccc1` registered a TGI of 51.7 µM.

For the molecule `Oc1ccccc1/C=N/c1nc2cc3sc(/N=C/c4ccccc4O)nc3cc2s1`, the TGI is more than 100 µM.

For `CCCCC1c2c([nH]c3ccccc23)C2C(=O)N(c3ccc(OC)cc3)C(=O)C2C1CCC` (stereo not given), the TGI came to 5.68 µM.

Take `CCN(CC)CCOc1ccc(N2C(=O)c3cc(OC)c(OC)cc3C2=O)cc1`: the TGI was more than 100 µM.

Consider `C(=N\NC1=NCCCN1)/c1ccc2ccccc2c1`, for which the TGI was 76.1 µM.

The test system of another assay is CCRF-CEM leukemia. In words: NCI tumour cell line growth inhibition, 48 h.
In turn, `O=P(c1ccccc1)(c1ccccc1)N1O[C@@H](c2ccccc2)C=C[C@H]1c1ccccc1` had a TGI of 53.5 µM.

`CC(C)(C)NC(=O)/C(=C\Sc1ccccc1)c1ccc2c(c1)OCO2`: the TGI was more than 100 µM.

`COC(=O)[C@]12CC[C@H]3CN(C(=O)OCc4ccccc4)[C@H]([C@H]31)[C@H](c1ccco1)N2S(=O)(=O)c1ccc(C)cc1` registered a TGI of more than 100 µM.

As to `O=C1C[C@H](Sc2ccccc2)C2(OCCO2)[C@@H](Sc2ccccc2)C1`, the TGI came out at 1.76 µM.

As to `CCCNC(=O)CCC(C)[C@H]1CCC2C3C(C[C@H](OC(C)=O)[C@@]21C)[C@@]1(C)CCC2(C[C@H]1C[C@H]3OC(C)=O)OOC1(CCC(C)CC1)OO2` (stereo not given in full), the TGI turned out to be 2.16 µM.

`CCN(C(=S)N[C@@H](Cc1ccccc1)C(=O)N[C@@H](CC(C)C)C(=O)OC)c1ccccc1` yielded a TGI of more than 100 µM.

In the case of `CCCn1c(CN(Cc2nc3ccccc3n2CCC)Cc2nc3ccccc3n2CCC)nc2ccccc21`, the TGI was determined as 21.7 µM.

In turn, `COc1cc(NS(C)(=O)=O)ccc1N1Cc2cnc3ccc4[nH]c(C)cc1c4c23` gave a TGI of more than 100 µM.

For the molecule `CC12CC(=O)C3C(C(=O)C1)C32C` (stereo not given), the TGI was more than 100 µM.

As to `CC(=O)N/N=C1\NC(=O)C[C@H]2[C@@H]3CC=C4C[C@@H](OC(C)=O)CC[C@]4(C)[C@H]3CC[C@]12C`, the TGI is more than 100 µM.

Take `C=C[C@@H]1C(CO)=CCC2[C@H]1CCC1C(C)(C)C(=O)CC[C@]21C` (stereo not given in full): the TGI is more than 100 µM.

For the molecule `COc1ccc2cc3c4cc5c(cc4cc[n+]3cc2c1OC)OCO5`, the TGI turned out to be 35.5 µM.

As for `C/C(CC1C2CCCC1C2)=N\NC(N)=O` (stereo not given), the TGI was more than 100 µM.

For `O=c1oc(-c2ccc(O)c(O)c2)cc2cccc(O)c12`, the TGI was more than 46.1 µM.

For the molecule `COc1cc2c(cc1-c1c(C)noc1C)cc(C)c(=O)n2Cc1ccccn1`, the GI50 is 1570 nM and the TGI is more than 100 µM.

`N#CC(C#N)=CNC(=S)c1ccncc1` gave a TGI of more than 100 µM.

The molecule `C1=CC2=CC=CC3c4nc5ccc6ccccc6c5nc4C(=C1)C23` (stereo not given) gave a TGI of more than 100 µM.

Molecule `COc1ccc(C2(CC(C)O)SCCCS2)cc1` (stereo not given) gave a TGI of more than 100 µM.

`Clc1ccc(-c2nn3c(-c4ccncc4)nnc3s2)cc1`: the TGI was more than 100 µM.

As to `COc1ccc(C(OCC2OC(n3cc(C)c(=O)[nH]c3=O)CC2n2cc(Cn3cc(F)c(=O)[nH]c3=O)nn2)(c2ccccc2)c2ccccc2)cc1` (stereo not given), the TGI amounted to 9.85 µM.

Consider `O=[N+]([O-])/C(C(Cl)=C(Cl)Cl)=C(\Nc1cccc2cccnc12)SCc1ccccc1`, for which the TGI came out at 97.4 µM.

In turn, `Oc1ccccc1/C=N/c1nc2cc3sc(/N=C/c4ccccc4O)nc3cc2s1` had a TGI of more than 100 µM.

`CCCCC1c2c([nH]c3ccccc23)C2C(=O)N(c3ccc(OC)cc3)C(=O)C2C1CCC` (stereo not given) had a TGI of 9.12 µM.

Take `CCN(CC)CCOc1ccc(N2C(=O)c3cc(OC)c(OC)cc3C2=O)cc1`: the TGI was more than 100 µM.

`C(=N\NC1=NCCCN1)/c1ccc2ccccc2c1` came in with a TGI of 43.8 µM.

The values above are taken from PubChem BioAssay (NCI).
